Measurements from US20260109694A1, “HETEROCYCLIC COMPOUNDS AND USES THEREOF” (Kumquat Biosciences Inc., priority 2023, published 2026).

How the values were obtained:
[1] = molecular target: T1, PTPN2 (Homo sapiens, UniProt P17706); assay: Phosphatase activity assay (DiFMUP substrate); type: biochemical; conditions: value bin printed in column head
T1 sequence (P17706 1-415): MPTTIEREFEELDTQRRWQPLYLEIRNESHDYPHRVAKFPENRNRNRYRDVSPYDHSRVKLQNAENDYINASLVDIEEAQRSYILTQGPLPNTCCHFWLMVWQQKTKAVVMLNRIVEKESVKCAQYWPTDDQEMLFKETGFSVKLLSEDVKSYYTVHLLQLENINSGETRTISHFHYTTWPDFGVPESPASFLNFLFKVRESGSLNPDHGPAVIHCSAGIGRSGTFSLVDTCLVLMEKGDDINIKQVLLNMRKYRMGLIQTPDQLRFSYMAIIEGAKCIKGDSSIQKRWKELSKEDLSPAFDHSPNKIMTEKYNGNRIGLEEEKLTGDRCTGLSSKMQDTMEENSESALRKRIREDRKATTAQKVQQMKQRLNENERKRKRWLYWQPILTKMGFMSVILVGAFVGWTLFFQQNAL
Description: (§1) The selectivity and potency of a small molecule PTPN2 inhibitor as provided herein against one or more protein tyrosine phosphatase (PTP) enzymes, and specifically against PTPN2, is assessed in various ways. The one or more PTP enzymes comprise Mycobacterium protein tyrosine phosphatase A (mPTPA), Mycobacterium protein tyrosine phosphatase B (mPTPB), PTPN1 (i.e., PTP1B), PTPN2 (i.e., TC-PTP), PTPN22 (i.e., LYP), SHP-1, SHP-2, FAP-1, Meg2, HePTP, Laforin, VHX, VHR, LMWPTP, Cdc14A, LAR, CD45, PTPRG, a fragment thereof, a variant thereof, and a combination thereof. Selectivity and potency of a small molecule PTPN2 inhibitor is evaluated using a PTP activity inhibition assay. The assay is performed using a buffer comprising 50 mM HEPES buffer pH 7.5, 150 mM NaCl, 0.5 mM EDTA, 1 mM DTT, 0.001% Tween-20.
(§2) The assay is performed using a phosphated substrate, e.g., 10 mM 6,8-Difluoro-4-Methylumbelliferyl Phosphate (DIFMUP) that is stored at −20° C. Alternatively or in addition to, the assay is performed using other phosphated substrate (e.g., fluorescein diphosphate). Each PTP enzyme is diluted in the assay buffer
(§3) The assay can be carried out at room temperature in multiplate format, e.g., using 384 well plates. A small molecule PTPN2 inhibitor dissolved in DMSO at one of 10 concentrations from a serial dilution or DMSO alone for control is added to each well. A mixture of the assay buffer comprising PTP enzyme (e.g., 0.025 ng/ul PTPN2) is added to each well and mixed for approximately 2 minutes. The reaction is initiated by adding DiFMUP diluted in the assay buffer to a final concentration of approximately 45 µM DiFMUP in PTPN2 assay. For each PTP enzyme, DiFMUP is added at the Km (Michaelis constant) of the enzyme that had been independently determined. The phosphatase activity of the PTP enzyme is assessed by monitoring appearance of a fluorescent product (6,8-difluoro-7-hydroxyl-4-coumarin (DiFMU) from DiFMUP) continuously for about 15 to 30 minutes, using the INFINITE M1000Pro plate reader (Tecan) with excitation at 360 nm and emission at 450 nm (cutoff filter at 435 nm) for DiFMU. Each assay is performed at least in duplicate. The rate (e.g., the initial rate) of DiFMU formation is plotted against the concentration of the small molecule PTPN2 inhibitor, and the data is fitted (e.g., using a 4-parameter equation) to determine the inflection point of the fit as the IC50 of the small molecule PTPN2 inhibitor for a specific enzyme. Utilizing this assay, the ability of the compounds in Table 1 to inhibit PTPN2 and PTP1B has been assessed. Table 3 summarizes the IC50 values.

[2] = molecular target: T2, PTP1B (Homo sapiens, UniProt P18031); assay: Phosphatase activity assay (DiFMUP substrate); type: biochemical; conditions: value bin printed in column head
T2 sequence (P18031 1-435): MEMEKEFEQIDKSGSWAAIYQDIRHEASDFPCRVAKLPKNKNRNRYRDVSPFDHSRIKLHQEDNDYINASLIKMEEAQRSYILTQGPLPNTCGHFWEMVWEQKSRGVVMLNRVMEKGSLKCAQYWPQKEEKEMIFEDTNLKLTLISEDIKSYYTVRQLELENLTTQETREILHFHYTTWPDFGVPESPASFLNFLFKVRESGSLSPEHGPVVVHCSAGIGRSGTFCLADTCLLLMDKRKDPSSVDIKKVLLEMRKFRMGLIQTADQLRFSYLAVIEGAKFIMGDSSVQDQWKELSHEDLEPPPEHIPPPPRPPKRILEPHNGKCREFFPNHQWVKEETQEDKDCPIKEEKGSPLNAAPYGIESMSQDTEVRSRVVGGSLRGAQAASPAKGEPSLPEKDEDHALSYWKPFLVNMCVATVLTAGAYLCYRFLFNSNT
Description: as §1, §2, §3

| IC50 [1] [nM] | IC50 [2] [nM] | Structure (SMILES) |
| --- | --- | --- |
| ≤ 1000 | ≤ 1000 | CC(OC(=O)C(C)C)OC(=O)N1CC(c2ccc(O)c(N3CC(=O)NS3(=O)=O)c2F)=C[C@H]1CCC1CC1 (mixture of isomers) [Compound 111, 1-(isobutyryloxy)ethyl (2R)-2-(2-cyclopropylethyl)-4-(3-(1,1-dioxido-4-oxo-1,2,5-thiadiazolidin-2-yl)-2-fluoro-4-hydroxyphenyl)-2,5-dihydro-1H-pyrrole-1-carboxylate] |
| ≤ 1000 | ≤ 1000 | CC(OC(=O)[C@H](N)C(C)C)OC(=O)N1CC(c2ccc(O)c(N3CC(=O)NS3(=O)=O)c2F)=C[C@H]1CCC1CCC1 (stereo partly drawn) [Compound 147, 1-((D-valyl)oxy)ethyl (2R)-2-(2-cyclobutylethyl)-4-(3-(1,1-dioxido-4-oxo-1,2,5-thiadiazolidin-2-yl)-2-fluoro-4-hydroxyphenyl)-2,5-dihydro-1H-pyrrole-1-carboxylate] |
| > 1000 | ≤ 1000 | CC(C)CC[C@H]1C=C(c2ccc(O)c(N3CC(=O)NS3(=O)=O)c2F)CN1C(=O)O[C@H](C)OC(=O)C1CCCC1 [Compound 159, (R)-1-((cyclopentanecarbonyl)oxy)ethyl (S)-4-(3-(1,1-dioxido-4-oxo-1,2,5-thiadiazolidin-2-yl)-2-fluoro-4-hydroxyphenyl)-2-isopentyl-2,5-dihydro-1H-pyrrole-1-carboxylate] |
| ≤ 1000 | ≤ 1000 | CC(C)CC[C@H]1C=C(c2ccc(O)c(N3CC(=O)NS3(=O)=O)c2F)CN1C(=O)O[C@H](C)OC(=O)C(C)C [Compound 148, (R)-1-(isobutyryloxy)ethyl (S)-4-(3-(1,1-dioxido-4-oxo-1,2,5-thiadiazolidin-2-yl)-2-fluoro-4-hydroxyphenyl)-2-isopentyl-2,5-dihydro-1H-pyrrole-1-carboxylate] |
| ≤ 1000 | ≤ 1000 | O=C1CN(c2c(O)ccc(C3=CC(C4CCC4)NC3)c2F)S(=O)(=O)N1 (stereo not drawn) [Compound 125, 5-(3-(5-cyclobutyl-2,5-dihydro-1H-pyrrol-3-yl)-2-fluoro-6-hydroxyphenyl)-1,2,5-thiadiazolidin-3-one 1,1-dioxide] |
| ≤ 1000 | ≤ 1000 | O=C1CN(c2c(O)cc(C3=CCCNC3)cc2F)S(=O)(=O)N1 [Compound 132, 5-(2-fluoro-6-hydroxy-4-(1,2,5,6-tetrahydropyridin-3-yl)phenyl)-1,2,5-thiadiazolidin-3-one 1,1-dioxide] |
| ≤ 1000 | ≤ 1000 | O=C1CN(c2c(O)ccc(C3=CCC(CO)C3)c2F)S(=O)(=O)N1 (stereo not drawn) [Compound 135, 5-(2-fluoro-6-hydroxy-3-(4-(hydroxymethyl)cyclopent-1-en-1-yl)phenyl)-1,2,5-thiadiazolidin-3-one 1,1-dioxide] |
| ≤ 1000 | ≤ 1000 | CC(C)OC(=O)N1CC(c2ccc(O)c(N3CC(=O)NS3(=O)=O)c2F)=C[C@H]1CCC1CCC1 [Compound 166, isopropyl (R)-2-(2-cyclobutylethyl)-4-(3-(1,1-dioxido-4-oxo-1,2,5-thiadiazolidin-2-yl)-2-fluoro-4-hydroxyphenyl)-2,5-dihydro-1H-pyrrole-1-carboxylate] |
| ≤ 1000 | ≤ 1000 | CC(OC(=O)C1CCCC1)OC(=O)N1CC(c2ccc(O)c(N3CC(=O)NS3(=O)=O)c2F)=C[C@H]1CCC1CCC1 (stereo partly drawn) [Compound 163, 1-((cyclopentanecarbonyl)oxy)ethyl (2R)-2-(2-cyclobutylethyl)-4-(3-(1,1-dioxido-4-oxo-1,2,5-thiadiazolidin-2-yl)-2-fluoro-4-hydroxyphenyl)-2,5-dihydro-1H-pyrrole-1-carboxylate] |
| ≤ 1000 | ≤ 1000 | O=C1CN(c2c(O)ccc(CC3CCNC3)c2F)S(=O)(=O)N1 (stereo not drawn) [Compound 141, 5-(2-fluoro-6-hydroxy-3-(pyrrolidin-3-ylmethyl)phenyl)-1,2,5-thiadiazolidin-3-one 1,1-dioxide] |
| ≤ 1000 | ≤ 1000 | O=C1CN(c2c(O)ccc(C3=C[C@@H](CCC4CCC4)NC3)c2F)S(=O)(=O)N1 [Compound 116, (R)-5-(3-(5-(2-cyclobutylethyl)-2,5-dihydro-1H-pyrrol-3-yl)-2-fluoro-6-hydroxyphenyl)-1,2,5-thiadiazolidin-3-one 1,1-dioxide] |
| > 1000 | > 1000 | O=C1CN(c2c(O)ccc(C(=O)NC3CCNC3)c2F)S(=O)(=O)N1 (stereo not drawn) [Compound 136, 3-(1,1-dioxido-4-oxo-1,2,5-thiadiazolidin-2-yl)-2-fluoro-4-hydroxy-N-(pyrrolidin-3-yl)benzamide] |
| ≤ 1000 | ≤ 1000 | CC(C)[C@@H](N)C(=O)NCC(=O)N1CC(c2ccc(O)c(N3CC(=O)NS3(=O)=O)c2F)=C[C@H]1CCC1CCC1 [Compound 149, (R)-2-amino-N-(2-((R)-2-(2-cyclobutylethyl)-4-(3-(1,1-dioxido-4-oxo-1,2,5-thiadiazolidin-2-yl)-2-fluoro-4-hydroxyphenyl)-2,5-dihydro-1H-pyrrol-1-yl)-2-oxoethyl)-3-methylbutanamide] |
| ≤ 1000 | ≤ 1000 | CCC[C@H]1C=C(c2ccc(O)c(N3CC(=O)NS3(=O)=O)c2F)CN1 [Compound 129, (S)-5-(2-fluoro-6-hydroxy-3-(5-propyl-2,5-dihydro-1H-pyrrol-3-yl)phenyl)-1,2,5-thiadiazolidin-3-one 1,1-dioxide] |
| ≤ 1000 | ≤ 1000 | O=C1CN(c2c(O)ccc(C3=C[C@H](CCC4CCC4)NC3)c2F)S(=O)(=O)N1 [Compound 134, (S)-5-(3-(5-(2-cyclobutylethyl)-2,5-dihydro-1H-pyrrol-3-yl)-2-fluoro-6-hydroxyphenyl)-1,2,5-thiadiazolidin-3-one 1,1-dioxide] |
| > 1000 | > 1000 | CC1=C(c2ccc(O)c(N3CC(=O)NS3(=O)=O)c2F)CNC1C (stereo not drawn) [Compound 118, 5-(3-(4,5-dimethyl-2,5-dihydro-1H-pyrrol-3-yl)-2-fluoro-6-hydroxyphenyl)-1,2,5-thiadiazolidin-3-one 1,1-dioxide] |

| Structure (SMILES) | IC50 [1] [nM] | IC50 [2] [nM] |
| --- | --- | --- |
| CC(=O)OC(C)OC(=O)N1CC(c2ccc(O)c(N3CC(=O)NS3(=O)=O)c2F)=C[C@H]1CCC1CCC1 (stereo partly drawn) [Compound 164, 1-acetoxyethyl (2R)-2-(2-cyclobutylethyl)-4-(3-(1,1-dioxido-4-oxo-1,2,5-thiadiazolidin-2-yl)-2-fluoro-4-hydroxyphenyl)-2,5-dihydro-1H-pyrrole-1-carboxylate] | ≤ 1000 | ≤ 1000 |
| CC(=O)OC(C)OC(=O)N1CC(c2ccc(O)c(N3CC(=O)NS3(=O)=O)c2F)=C[C@H]1CCC1CC1 (stereo partly drawn) [Compound 121, 1-acetoxyethyl (2R)-2-(2-cyclopropylethyl)-4-(3-(1,1-dioxido-4-oxo-1,2,5-thiadiazolidin-2-yl)-2-fluoro-4-hydroxyphenyl)-2,5-dihydro-1H-pyrrole-1-carboxylate] | ≤ 1000 | ≤ 1000 |
